The text below walks through data of patent publication US5691349A, “Quinclidine derivatives as squalene synthase inhibitors” (Zeneca Limited, priority 1992, dated 1997).

The target in one assay is T1, squalene synthetase (Rattus norvegicus, UniProt Q02769).
T1 construct: rat liver microsomal protein (20 μg); from tissue; host or cells: rat liver microsomes
T1 sequence (Q02769 1-416): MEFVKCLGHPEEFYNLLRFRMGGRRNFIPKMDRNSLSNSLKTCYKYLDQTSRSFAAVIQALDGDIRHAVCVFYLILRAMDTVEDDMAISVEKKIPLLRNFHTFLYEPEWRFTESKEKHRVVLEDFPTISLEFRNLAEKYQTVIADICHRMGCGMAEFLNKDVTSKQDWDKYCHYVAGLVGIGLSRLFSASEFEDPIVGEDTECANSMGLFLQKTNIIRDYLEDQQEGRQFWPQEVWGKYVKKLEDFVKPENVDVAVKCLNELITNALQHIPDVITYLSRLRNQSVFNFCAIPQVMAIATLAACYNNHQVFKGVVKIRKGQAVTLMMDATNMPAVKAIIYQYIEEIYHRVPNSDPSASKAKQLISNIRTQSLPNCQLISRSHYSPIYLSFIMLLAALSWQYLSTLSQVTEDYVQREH
Kind of assay: Inhibition of Squalene Synthetase (prevention of squalene formation from tritiated farnesyl pyrophosphate, rat liver microsomal protein). The assay is classed as biochemical. The following applies: rat liver microsomes; 1-[3H]-farnesyl pyrophosphate 20 μM; 37° C.; 15 minutes; read-out: IC50 (concentration which results in a 50% inhibition of squalene production). Here is the method: (a) Inhibition of Squalene Synthetase
In this test, the ability of a compound to prevent the formation of squalene from a radioactive substrate (tritiated farnesyl pyrophosphate) is assessed.
The test compound is incubated at a concentration of 25 micromolar in 200 μl of a buffered solution containing potassium phosphate (50 mM), MgCl2 (4.95 mM), KF (9.9 mM), NADPH (0.9 mM) and rat liver microsomal protein (20 μg). Rat liver microsomes are prepared by the method described in published European Patent Application No. 324,421 and stored in liquid nitrogen prior to assay. Assay vials are kept at 37° C. throughout the incubation.
The reaction is started with the addition of the substrate (1-[^3 H]-farnesyl pyrophosphate), final concentration 20 μM, and stopped after 15 minutes reaction time with the addition of 50 μl of 4% KOH. The reaction products are separated from unreacted substrate after application to a C-18 octadecyl 1 ccBond column (Analytichem Int product No. 617101). An aqueous fraction is eluted with 250 μl of 0.1M KOH. Squalene is then eluted with 1.0 ml 10% ethylacetate in hexane and radioactivity determined. The difference in radioactivity in the presence and absence of the test compound is used to determine the level of inhibition. […] The IC50 can then be determined from a plot of percentage inhibition against concentration of test compound.
A general note: Liver microsomes are a subcellular fraction often used to study metabolism.

Assay [1] concerns de novo hepatic cholesterol synthesis. Kind of assay: Acute rat cholesterol synthesis assay (de novo hepatic cholesterol synthesis from 14C-acetate). The assay is classed as in vivo. The following applies: female rats, oral gavage, ip or iv dosing (route not given). Here is the method: (b) Acute rat cholesterol synthesis assay.
This is an acute in vivo test in the rat to measure de novo hepatic cholesterol synthesis from exogenously administered ^14 C-acetate.
Female rats (35-55 g) are housed in reverse lighting conditions (red light from 0200 h-1400 h) for a period of about 2 weeks prior to test. Animals are allowed free access to chow and drinking water throughout this period. At test, animals should weigh 125-150 g.
Test compounds may be administered by oral gavage, dissolved or suspended in 0.5% polysorbate, or by ip or iv dosing. Control animals receive vehicle alone. After 1 hour the rats are injected ip with 25 μCi [2-^14 C]-acetate (NEN DUPONT. specific activity, 45-60 mCi/mmol NEC-085H, or AMERSHAM specific activity, 50-60 mCi/mmol CFA 14) in a volume of 0.25 ml saline (100 μCi/ml). After a further hour, rats are terminally anaesthetised with halothane and a blood sample obtained from the abdominal vena cava.
1 ml of plasma is lyophilised and then saponified in 2 ml ethanolic KOH (1 part 33% KOH, 9 parts ethanol) at 75° C. for 2 hours. After addition of an equal quantity of water, non-saponifiable lipids are extracted with two 5 ml volumes of hexane. The hexane extracts are evaporated to dryness and the residues dissolved in ethanol to determine cholesterol specific radioactivity. EC50 values can be determined in the standard way.

Molecules are shown by their SMILES. Counter-ions that a name gives are not always drawn.

For the molecule `CCCCOc1ccc(CCC2CN3CCC2CC3)cc1` (centres unmarked) [Example 4, 3-[2-(4-butoxyphenyl)ethyl]-quinuclidine hydrochloride], the IC50 on squalene synthetase was 33 nM. For orientation: ED50 means the midpoint of the dose-response relation. `CCCCCc1ccc(C#CC2(O)CN3CCC2CC3)cc1` (centres unmarked) [Example 18, 3-[2-(4-pentylphenyl)ethynyl]-3-hydroxyquinuclidine] had an ED50 in assay [1] of about 21.5 mg/kg.
